From patent US4746736A, “Carbapenem antibiotics” (priority 1986, dated 1988)
Converted amounts (≈) assume the structure as drawn. Where two headings read alike, the source gives them in different places.

Columns and labels:
Format in all cases: cell-based
K. pneumoniae A20468 = test: In vitro MIC by tube dilution, K. pneumoniae A20468; details: Klebsiella pneumoniae, read-out: MIC
P. morganii A15153 = test: In vitro MIC by tube dilution, P. morganii (M. morganii) A15153; details: Morganella morganii, read-out: MIC
E. cloacae A-9656 = test: In vitro MIC by tube dilution, E. cloacae A-9656; details: Enterobacter cloacae, A9656, E. cloacae A-9656; read-out: MIC
S. pyogenes A9604 = test: In vitro MIC by tube dilution, S. pyogenes A9604; details: Streptococcus pyogenes, A9604, S. pyogenes A-9604; read-out: MIC
E. coli A20341-1 = test: In vitro MIC by tube dilution, E. coli A20341-1; details: Escherichia coli, A203411, read-out: MIC
E. coli A15119 = test: In vitro MIC by tube dilution, E. coli A15119; details: Escherichia coli, read-out: MIC
E. cloacae A-9659 = test: In vitro MIC by tube dilution, E. cloacae A-9659; details: Enterobacter cloacae, A9659, E. cloacae A-9659; read-out: MIC
K. pneumoniae A-9664 = test: In vitro MIC by tube dilution, K. pneumoniae A-9664; details: Klebsiella pneumoniae, A9664, read-out: MIC
S. marcescens A20019 = test: In vitro MIC by tube dilution, S. marcescens A20019; details: Serratia marcescens, read-out: MIC
S. aureus A-9537 = test: In vitro MIC by tube dilution, S. aureus A-9537; details: Staphylococcus aureus, read-out: MIC
P. mirabilis A-9900 = test: In vitro MIC by tube dilution, P. mirabilis A-9900; details: Proteus mirabilis, A9900, P. mirabilis A-9900; read-out: MIC
P. aeruginosa A-9843A = test: In vitro MIC by tube dilution, P. aeruginosa A-9843A; details: Pseudomonas aeruginosa, A9843A, P. aeruginosa A-9843a; read-out: MIC
S. pneumoniae A-9585 = test: In vitro MIC by tube dilution, S. pneumoniae A-9585; details: Streptococcus pneumoniae, A9585, S. pneumoniae A-9585; read-out: MIC
[1] = test system: S. aureus A-9606 (Pen-res.); test: In vitro MIC by tube dilution, S. aureus A-9606 (Pen-res.); details: Staphylococcus aureus, S. aureus A-9606 (Pen-res); read-out: MIC
P. rettgeri A22424 = test: In vitro MIC by tube dilution, P. rettgeri A22424; details: Providencia rettgeri, A22424, P. rettgeri A22424; read-out: MIC
S. faecalis A20688 = test: In vitro MIC by tube dilution, S. faecalis A20688; details: Enterococcus faecalis, A20688, S. faecalis A20688; read-out: MIC
P. aeruginosa A21213 = test: In vitro MIC by tube dilution, P. aeruginosa A21213; details: Pseudomonas aeruginosa, A21213, P. aeruginosa A21213; read-out: MIC
[2] = A9537, S. aureus A-9537 +50% serum
[3] = A9537, S. aureus A-9537, no serum

Structure (SMILES)	MIC (K. pneumoniae A20468; A20468, K. pneumoniae A20468) [µg/mL]	MIC (P. morganii A15153; A15153, M. morganii A15153) [µg/mL]	MIC (E. cloacae A-9656) [µg/mL]	MIC (S. pyogenes A9604) [ng/mL]	MIC (E. coli A20341-1) [µg/mL]	MIC (E. coli A15119; E. coli A15119) [µg/mL]	MIC (E. cloacae A-9659) [µg/mL]	MIC (K. pneumoniae A-9664) [µg/mL]	MIC (S. marcescens A20019) [µg/mL]	MIC (S. aureus A-9537; [2]) [ng/mL]	MIC (S. aureus A-9537; [3]) [ng/mL]	MIC (P. mirabilis A-9900) [µg/mL]	MIC (P. aeruginosa A-9843A) [µg/mL]	MIC (S. pneumoniae A-9585) [ng/mL]	MIC [1] [µg/mL]	MIC (E. coli A15119; A15119, E. coli A15119) [µg/mL]	MIC (P. rettgeri A22424) [µg/mL]	also measured
C[C@@H](O)[C@H]1C(=O)N2C(C(=O)[O-])=C(SCc3ccc[n+](C)c3)C[C@H]12 [Example 3, 3-(N-Methylpyridine-3-yl-methanethio)-6α-[1-(R)-hydroxyethyl]-7-oxo-1-azabicyclo(3.2.0)hept-2-ene-2-carboxylate]	0.06 (≈ 0.179 µM)	0.13 (≈ 0.389 µM)	0.13 (≈ 0.389 µM)	2 (≈ 0.00598 µM)	0.016 (≈ 0.0478 µM)	0.03 (≈ 0.0897 µM)	0.13 (≈ 0.389 µM)	0.06 (≈ 0.179 µM)	0.016 (≈ 0.0478 µM)	16 (≈ 0.0478 µM)	16 (≈ 0.0478 µM)	0.13 (≈ 0.389 µM)	2 (≈ 5.98 µM)	2 (≈ 0.00598 µM)	0.016 (≈ 0.0478 µM)	–	–	–
C[C@@H](O)[C@H]1C(=O)N2C(C(=O)[O-])=C(SCc3cccc[n+]3C)C[C@H]12 [Example 4, 3-(N-Methylpyridine-2-yl-methanethio)-6α-[1-(R)-hydroxyethyl]-7-oxo-1-azabicyclo(3.2.0)hept-2-ene-2-carboxylate]	–	0.016 (≈ 0.0478 µM)	–	–	0.016 (≈ 0.0478 µM)	–	–	–	–	–	8 (≈ 0.0239 µM)	–	2 (≈ 5.98 µM)	2 (≈ 0.00598 µM)	0.016 (≈ 0.0478 µM)	0.016 (≈ 0.0478 µM)	–	–
Cc1scc(CSC2=C(C(=O)[O-])N3C(=O)[C@H]([C@@H](C)O)[C@H]3C2)[n+]1C [Example 8, 3-(2-Methyl-N-methylthiazole-4-yl-methanethio)-6α-[1-(R)-hydroxyethyl]-7-oxo-1-azabicyclo(3.2.0)hept-ene-2-carboxylate]	0.13 (≈ 0.367 µM)	–	0.06 (≈ 0.169 µM)	2 (≈ 0.00564 µM)	0.03 (≈ 0.0846 µM)	–	0.13 (≈ 0.367 µM)	0.03 (≈ 0.0846 µM)	0.06 (≈ 0.169 µM)	30 (≈ 0.0846 µM)	8 (≈ 0.0226 µM)	0.13 (≈ 0.367 µM)	1 (≈ 2.82 µM)	2 (≈ 0.00564 µM)	0.03 (≈ 0.0846 µM)	0.016 (≈ 0.0451 µM)	0.13 (≈ 0.367 µM)	–
C[C@@H](O)[C@H]1C(=O)N2C(C(=O)[O-])=C(SCc3n(C)cc[n+]3C)C[C@H]12 [Example 9, 3-(N,N'-Dimethylimidazole-2-yl-methanethio)-6α-[1-(R)-hydroxyethyl]-7-oxo-1-azabicyclo(3.2.0)hept-2-ene-2-carboxylate]	–	–	0.03 (≈ 0.0889 µM)	–	0.004 (≈ 0.0119 µM)	0.008 (≈ 0.0237 µM)	0.03 (≈ 0.0889 µM)	0.016 (≈ 0.0474 µM)	0.016 (≈ 0.0474 µM)	–	4 (≈ 0.0119 µM)	0.016 (≈ 0.0474 µM)	2 (≈ 5.93 µM)	–	–	–	0.06 (≈ 0.178 µM)	MIC (K. pneumoniae A20468; K. pneumoniae A20468): 0.03 µg/mL (≈ 0.0889 µM); MIC (P. morganii A15153; M. morganii A15153): 0.03 µg/mL (≈ 0.0889 µM); MIC (S. faecalis A20688): 0.13 µg/mL (≈ 0.385 µM); MIC (P. aeruginosa A21213): 0.13 µg/mL (≈ 0.385 µM)
Cc1sc(CSC2=C(C(=O)[O-])N3C(=O)[C@H]([C@@H](C)O)[C@H]3C2)c(C)[n+]1C [Example 10, 3-(2,3,4,-Trimethylthiazole-5-yl-methanethio)-6α[1-(R)-hydroxyethyl]-7-oxo-1-azabicyclo(3.2.0)hept-2-ene-2-carboxylate]	0.13 (≈ 0.353 µM)	–	0.13 (≈ 0.353 µM)	–	0.008 (≈ 0.0217 µM)	–	0.13 (≈ 0.353 µM)	–	–	–	8 (≈ 0.0217 µM)	0.13 (≈ 0.353 µM)	32 (≈ 86.8 µM)	–	0.008 (≈ 0.0217 µM)	0.016 (≈ 0.0434 µM)	0.13 (≈ 0.353 µM)	–
C[C@@H](O)[C@H]1C(=O)N2C(C(=O)[O-])=C(SCc3scc[n+]3C)C[C@H]12 [Example 11, 3-[2-(N-Methylthiazolium)methylthio]-6α-[1-(R)-hydroxyethyl]-7-oxo-1-azabicyclo(3.2.0)hept-2-ene-2-carboxylate]	0.13 (≈ 0.382 µM)	0.06 (≈ 0.176 µM)	0.13 (≈ 0.382 µM)	2 (≈ 0.00587 µM)	0.03 (≈ 0.0881 µM)	–	0.06 (≈ 0.176 µM)	0.03 (≈ 0.0881 µM)	0.06 (≈ 0.176 µM)	16 (≈ 0.047 µM)	4 (≈ 0.0117 µM)	0.03 (≈ 0.0881 µM)	–	2 (≈ 0.00587 µM)	0.016 (≈ 0.047 µM)	0.016 (≈ 0.047 µM)	0.13 (≈ 0.382 µM)	MIC (P. aeruginosa A21213): 0.13 µg/mL (≈ 0.382 µM)
C[C@@H](O)[C@H]1C(=O)N2C(C(=O)[O-])=C(SCc3n(Cc4ccccc4)cc[n+]3C)C[C@H]12 [Example 13, 3-(N-Methyl-N'-benzylimidazole-2-yl-methanethio)-6α-[1-(R)-hydroxyethyl]-7-oxo-1-azabicyclo(3.2.0)hept-2-ene-2-carboxylate]	0.13 (≈ 0.314 µM)	0.016 (≈ 0.0387 µM)	0.03 (≈ 0.0726 µM)	–	0.008 (≈ 0.0193 µM)	0.004 (≈ 0.00967 µM)	0.06 (≈ 0.145 µM)	0.03 (≈ 0.0726 µM)	0.016 (≈ 0.0387 µM)	16 (≈ 0.0387 µM)	8 (≈ 0.0193 µM)	0.016 (≈ 0.0387 µM)	32 (≈ 77.4 µM)	–	0.008 (≈ 0.0193 µM)	–	–	MIC (S. faecalis A20688): 0.13 µg/mL (≈ 0.314 µM)
Cc1c(CSC2=C(C(=O)[O-])N3C(=O)[C@H]([C@@H](C)O)[C@H]3C2)ccc[n+]1C [Example 14, 3-(2-Methyl-N-methylpyridine-3-yl-methanethio)-6α-[1-(R)-hydroxyethyl]-7-oxo-1-azabicyclo(3.2.0)hept-2-ene-2-carboxylate]	–	–	0.03 (≈ 0.0861 µM)	–	0.008 (≈ 0.023 µM)	0.008 (≈ 0.023 µM)	0.03 (≈ 0.0861 µM)	0.03 (≈ 0.0861 µM)	0.016 (≈ 0.0459 µM)	30 (≈ 0.0861 µM)	8 (≈ 0.023 µM)	0.016 (≈ 0.0459 µM)	8 (≈ 23 µM)	–	0.016 (≈ 0.0459 µM)	–	0.06 (≈ 0.172 µM)	MIC (K. pneumoniae A20468; K. pneumoniae A20468): 0.03 µg/mL (≈ 0.0861 µM); MIC (P. morganii A15153; M. morganii A15153): 0.03 µg/mL (≈ 0.0861 µM); MIC (S. faecalis A20688): 0.13 µg/mL (≈ 0.373 µM)
C[C@@H](O)[C@H]1C(=O)N2C(C(=O)[O-])=C(SCc3cs[n+](C)n3)C[C@H]12 [Example 16, (5R,6S) 6-(1R-hydroxyethyl)-3-(2-methyl-1,2,3-thiadiazolium-4-ylmethylthio)-7-oxo-1-azabicyclo[3.2.0]hept-2-ene-2-carboxylate]	0.06 (≈ 0.176 µM)	–	0.06 (≈ 0.176 µM)	2 (≈ 0.00586 µM)	0.016 (≈ 0.0469 µM)	–	0.06 (≈ 0.176 µM)	0.06 (≈ 0.176 µM)	0.06 (≈ 0.176 µM)	30 (≈ 0.0879 µM)	8 (≈ 0.0234 µM)	0.06 (≈ 0.176 µM)	0.25 (≈ 0.732 µM)	2 (≈ 0.00586 µM)	0.016 (≈ 0.0469 µM)	0.016 (≈ 0.0469 µM)	–	–
C[C@@H](O)[C@H]1C(=O)N2C(C(=O)[O-])=C(SCc3cn(C)n[n+]3CC(=O)O)C[C@H]12 [Example 17, Potassium 3-[5-(1-carboxylatomethyl-3-methyl-1,2,3-triazolium)-methanethio]-6α-[1-(R)-hydroxyethyl]-7-oxo-1-azabicyclo[3.2.0]hept-2-ene-2-carboxylate]	–	–	–	16	–	–	–	0.13	0.13	–	–	0.13	> 63	16	–	–	–	–
C[C@@H](O)[C@H]1C(=O)N2C(C(=O)[O-])=C(SCc3n(C)nc[n+]3C)C[C@H]12 [Example 19, 3-[5-(1,4-Dimethyl-1,2,4-triazolium)methanethio]-6α-[1-(R)-hydroxyethyl]-7-oxo-1-azabicyclo[3.2.0]hept-2-ene-2-carboxylate]	0.06 (≈ 0.177 µM)	0.06 (≈ 0.177 µM)	0.03 (≈ 0.0887 µM)	2 (≈ 0.00591 µM)	0.008 (≈ 0.0236 µM)	0.008 (≈ 0.0236 µM)	0.03 (≈ 0.0887 µM)	0.03 (≈ 0.0887 µM)	0.03 (≈ 0.0887 µM)	–	4 (≈ 0.0118 µM)	0.03 (≈ 0.0887 µM)	–	2 (≈ 0.00591 µM)	0.016 (≈ 0.0473 µM)	–	0.13 (≈ 0.384 µM)	MIC (P. aeruginosa A21213): 0.06 µg/mL (≈ 0.177 µM)
C[C@@H](O)[C@H]1C(=O)N2C(C(=O)[O-])=C(SCc3n[n+](C)nn3C)C[C@H]12 [Example 20, (1'R,5R,6S) 3-[(1,3-dimethyl-5-tetrazolium)-methylthio]-6-(1-hydroxyethyl)-7-oxo-1-azabicyclo[3.2.0]hept-2-ene-2-carboxylate]	–	8 (≈ 23.6 µM)	–	130 (≈ 0.383 µM)	–	–	8 (≈ 23.6 µM)	–	–	2000 (≈ 5.89 µM)	–	–	32 (≈ 94.3 µM)	60 (≈ 0.177 µM)	> 125	–	8 (≈ 23.6 µM)	–
